According to the supplement of paper PMC10307832:

What was measured:
Assay in all cases: relative viability (nuclei count vs DMSO), 5 days (fraction); higher = more cells survive
[1] = compound: C1=CC(=CC=C1C2=CC(=C(S2)NC(=O)N)C(=O)N)F [TPCA-1] + CCNC(=O)c1noc(-c2cc(C(C)C)c(O)cc2O)c1-c1ccc(CN2CCOCC2)cc1 [Luminespib] (partner 0.01 µM)
In short: (§1)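 Cells from lung cancer lines were seeded into 1536-well plates and, one day later, dosed by pin tool. Treatments were either a single drug or a fixed dose of an anchor drug with five library-drug doses (not always all listed) in √10 steps. After 5 days, nuclei were stained in a one-step fixation (final 0.05% Triton X-100, 1% formaldehyde, 1 ug/ml Hoechst) and counted on 4× images, and relative viability is the treated-to-vehicle nuclei ratio, as the median of duplicate plates.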

[2] = compound: C1=CC(=CC=C1C2=CC(=C(S2)NC(=O)N)C(=O)N)F [TPCA-1] + O=C(c1cc(Cc2n[nH]c(=O)c3ccccc23)ccc1F)N1CCN(C(=O)C2CC2)CC1 [Olaparib] (partner 8 µM)
In short: as §1

[3] = compound: C[C@]12O[C@H](C[C@]1(O)CO)n1c3ccccc3c3c4c(c5c6ccccc6n2c5c31)CNC4=O [Lestaurtinib] + CS(=O)(=O)CCNCc1ccc(-c2ccc3ncnc(Nc4ccc(OCc5cccc(F)c5)c(Cl)c4)c3c2)o1 [Lapatinib] (partner 2 µM)
In short: as §1

[4] = compound: C[C@]12O[C@H](C[C@]1(O)CO)n1c3ccccc3c3c4c(c5c6ccccc6n2c5c31)CNC4=O [Lestaurtinib] + Nc1ncn([C@H]2C[C@H](O)[C@@H](CO)O2)c(=O)n1 [Decitabine] (partner 2 µM)
In short: as §1

Row | Cell Line | relative viability ([1]; first compound 0.04 µM) | relative viability ([1]; first compound 0.1265 µM) | relative viability ([1]; first compound 0.4 µM) | relative viability ([1]; first compound 1.265 µM) | relative viability ([1]; first compound 4 µM) | relative viability ([2]; first compound 0.04 µM) | relative viability ([2]; first compound 0.1265 µM) | relative viability ([2]; first compound 0.4 µM) | relative viability ([2]; first compound 1.265 µM) | relative viability ([2]; first compound 4 µM) | relative viability ([3]; first compound 0.005 µM) | relative viability ([3]; first compound 0.01581 µM) | relative viability ([3]; first compound 0.05 µM) | relative viability ([3]; first compound 0.1581 µM) | relative viability ([3]; first compound 0.5 µM) | relative viability ([4]; first compound 0.005 µM) | relative viability ([4]; first compound 0.01581 µM) | relative viability ([4]; first compound 0.05 µM) | relative viability ([4]; first compound 0.1581 µM) | relative viability ([4]; first compound 0.5 µM)
1 | 201T | 1.1 | 1.07 | 1.07 | 1.05 | 0.967 | 0.857 | 0.827 | 0.841 | 0.83 | 0.87 | 1.05 | 1.08 | 1.04 | 1.2 | 0.961 | 0.858 | 0.93 | 0.98 | 0.934 | 0.926
2 | A549 | – | – | – | – | – | 0.342 | 0.313 | 0.507 | 0.201 | 0.0946 | 1.1 | 0.972 | 0.447 | 0.132 | 0.0697 | 0.262 | 0.253 | 0.279 | 0.318 | 0.185
3 | A-427 | 1.01 | 0.873 | 0.935 | 0.902 | 0.637 | 0.818 | 0.686 | 0.778 | 0.777 | 0.65 | 1.03 | 1.06 | 1 | 0.711 | 0.225 | 0.548 | 0.544 | 0.518 | 0.347 | 0.2
4 | ABC-1 | 1.24 | 0.477 | 0.34 | 0.665 | 0.47 | 1.43 | 0.676 | 0.97 | 0.789 | 0.788 | 1.27 | 1.32 | 1.06 | 1.01 | 1.15 | 1.31 | 1.36 | 1.12 | 0.96 | 0.66
5 | BEN | 0.329 | 0.358 | 0.405 | 0.492 | 0.191 | 1.08 | 0.977 | 1.32 | 1.04 | 0.869 | 0.743 | 0.959 | 0.586 | 0.408 | 0.255 | 0.787 | 0.854 | 0.688 | 0.459 | 0.349
6 | CAL-12T | 0.462 | 0.351 | 0.196 | 0.294 | 0.194 | 0.621 | 0.734 | 0.732 | 0.638 | 0.753 | 0.671 | 0.649 | 0.537 | 0.384 | 0.246 | – | – | – | – | –
7 | COR-L23 | 0.682 | 0.602 | 0.762 | 0.625 | 0.381 | 0.393 | 0.329 | 0.286 | 0.303 | 0.325 | 1.08 | 1.24 | – | 0.623 | 0.271 | 0.487 | 0.511 | 0.384 | 0.354 | 0.153
8 | COR-L 105 | 0.782 | 0.658 | 0.766 | 0.738 | 0.648 | 0.712 | 0.7 | 0.665 | 0.752 | 0.697 | 0.358 | 0.389 | 0.289 | 0.304 | 0.256 | 0.687 | 0.663 | 0.582 | 0.505 | 0.385
9 | Calu-6 | – | – | – | – | – | 0.671 | 0.57 | 0.553 | 0.539 | 0.511 | 1.09 | 1.2 | 0.557 | 0.499 | 0.208 | – | – | – | – | –
10 | ChaGo-K-1 | 0.766 | 0.689 | 0.698 | 0.453 | 0.302 | 0.434 | 0.321 | 0.445 | 0.374 | 0.221 | – | – | – | – | – | 0.553 | 0.574 | 0.51 | 0.463 | 0.461
11 | EBC-1 | – | – | – | – | – | 0.759 | 0.606 | 0.784 | 0.727 | 0.715 | 0.164 | 0.236 | 0.251 | 0.234 | 0.185 | – | – | – | – | –
12 | EKVX | 0.885 | 0.845 | 0.933 | 0.756 | 0.809 | 0.963 | – | 0.837 | 0.568 | 0.727 | 0.192 | 0.221 | 0.195 | 0.194 | 0.198 | 0.518 | – | 0.357 | 0.396 | 0.342
13 | EMC-BAC-2 | 1.24 | 1.13 | 1.16 | 1.35 | 1.13 | 0.486 | 0.461 | 0.572 | 0.355 | 0.245 | 0.921 | 0.968 | 0.865 | 0.669 | 0.309 | 0.955 | 1.04 | 1.01 | 0.659 | 0.418
14 | EPLC-272H | 0.265 | 0.262 | 0.443 | 0.38 | 0.207 | 0.992 | 0.709 | 0.839 | 0.455 | 0.372 | 0.87 | 1.06 | 0.616 | 0.513 | 0.5 | 0.334 | 0.354 | 0.327 | 0.278 | 0.3
15 | H3255 | 0.696 | 0.893 | 0.836 | 0.822 | 0.622 | 0.577 | 0.542 | 0.536 | 0.527 | 0.507 | 0.2 | 0.175 | 0.243 | 0.18 | 0.112 | 0.792 | 0.565 | 0.562 | 0.512 | 0.366
16 | HARA | 0.791 | 0.754 | 0.864 | 0.83 | 0.382 | 0.884 | 0.765 | 1.09 | 0.742 | 0.656 | 0.795 | 0.748 | 0.738 | 0.68 | 0.369 | 0.699 | 0.749 | 0.613 | 0.513 | 0.214
17 | HCC-15 | 0.458 | 0.326 | 0.341 | 0.366 | 0.374 | 0.798 | 0.686 | 0.773 | 0.67 | 0.594 | 0.931 | 1.05 | 0.8 | 0.545 | 0.135 | 0.747 | 0.843 | 0.683 | 0.385 | 0.191
18 | HCC-44 | 0.958 | 1.03 | 1.02 | – | 0.983 | 0.983 | 0.938 | 0.95 | 0.908 | 0.937 | 0.985 | 1.14 | 0.851 | 1.14 | 0.479 | 0.967 | 0.963 | 0.926 | 1.1 | 0.745
